Square brackets hold non-standard residues; d marks the D form. Peptide text beside a SMILES is read from it. N(1-naphthylmethyl)Gly = O=C(O)CNCc1cccc2ccccc12; d1Nal = N[C@H](Cc1cccc2ccccc12)C(=O)O; N(4-MeBn)Gly = Cc1ccc(CNCC(=O)O)cc1; dNle = CCCC[C@@H](N)C(=O)O; NBuGly = CCCCNCC(=O)O
Legend:
[1] = Precipitation in time-kill media; format: physicochemical; conditions: time-kill experiment against P. aeruginosa, MHB II
Procedure: Time kill assays were performed in triplicate, meaning that every value is the average of three different samplings. Time–kill kinetic assays were performed using P. aeruginosa (26314), MRSP E104 and/or MRSP C22963 to determine the cell killing activity of B1 and two of its most promising analogues (compounds 23 and 26) based on prior antimicrobial susceptibility testing. The method reported by Blondeau et al.[63] was followed with minor modifications. Briefly, the assay was performed in MHB II with concentrations corresponding to 0.5, 1, 2 and 4 times the MIC of the strain. After 0, 15, 30, 60, 120, 180 and 300 min of growth, 100 μL aliquots were collected and 10-fold serially diluted. Twenty μL of cell suspension from each dilution were spotted in triplicate on blood agar plates followed by 16–18 h incubation at 37 °C and determination of colony forming units (CFU).

MSSA (ATCC 29213) = format: cell-based, Staphylococcus aureus; conditions: ATCC 29213, 18 h
How it was run: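 Broth microdilution per CLSI M31-A3 on canine clinical isolates plus reference MRSP C22963, MSSA and P. aeruginosa 26314; 5 × 10^5 CFU/mL in MHB II with two-fold dilutions from 1 to 64 µg/ml. MIC = lowest concentration without visible growth after 18 hours at 37 °C; triplicates on two days.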

Pronase = conditions: cited from earlier work

Row | Compound | precipitation in the media [1] | Minimum Inhibitory Concentration MSSA (ATCC 29213) (MSSA (ATCC 29213)) [µg/mL] | degradation by protease mix Pronase (Pronase) [%]
1 | CCCC[C@@H](NC(=O)[C@H](CCCCN)NC(=O)[C@H](CCCCN)NC(=O)[C@@H](N)CCCCN)C(=O)N[C@H](Cc1cccc2ccccc12)C(=O)N[C@H](Cc1ccccc1)C(=O)N[C@H](Cc1cccc2ccccc12)C(N)=O [Compound 26, Lys-Lys-Lys-nle-(1-Nal)ala-phe-(1-Nal)ala] (H-KKK[dNle][d1Nal][dF][d1Nal]-NH2; N-terminus assumed) | precipitated after 15 min |  | 
2 | CCCCN(CC(=O)N[C@@H](CCCCN)C(=O)N(CC(=O)N(CC(=O)N(CC(N)=O)Cc1cccc2ccccc12)Cc1ccc(C)cc1)Cc1cccc2ccccc12)C(=O)[C@H](CCCCN)NC(=O)[C@@H](N)CCCCN [B1, Lys-Lys-(NBu)Gly-Lys-(N1-Nal)Gly-(N4-MeBn)Gly-(N1-Nal)Gly] (H-KK[NBuGly]K[N(1-naphthylmethyl)Gly][N(4-MeBn)Gly][N(1-naphthylmethyl)Gly]-NH2) |  | 8 to 16 | 38

Reference: PMC6403271, “Characterization, mechanism of action and optimization of activity of a novel peptide-peptoid hybrid against bacterial pathogens involved in canine skin infections” (Scientific Reports, 2019)
